Tests used:
human cardiac β1AR = biological target: T1, human cardiac β1AR (Homo sapiens, UniProt P08588); test: AC activity in cardiac plasma membranes from non-failing donor human hearts; assay type: biochemical; conditions: agent alone, absence of IgG3 autoantibodies
T1 construct: non-failing human hearts were used as an endogenous system; tissue Cleveland Clinic's Tissue Bank; host or cells: non-failing donor human heart, plasma membrane fraction
Description: (§1) Briefly the treated cells were scraped using osmotic lysis buffer (5 mM Tris-HCl, pH 7.4; 5 mM EDTA; 1 mM PMSF; 2 μg/mL Leupeptin and 1 μg/mL Aprotinin) and homogenized by douncing. Cardiac tissue samples from non-failing human hearts were homogenized in osmotic lysis buffer using Polytron® homogenizer. This was followed by toggling the samples for 10 mins. The intact cells and nuclei were removed by centrifuging these samples at 2500 rpm for 5 mins. The collected supernatant was centrifuged at 17500 rpm for 30 minutes to obtain the plasma membrane as pellet. All the above steps were performed at 4° C.

human β1AR [1] = biological target: T2, human β1AR (Homo sapiens, UniProt P08588); test: phospho-ERK immunoblotting in β1AR-HEK 293 cells; conditions: agent alone
T2 sequence (P08588 whole entry): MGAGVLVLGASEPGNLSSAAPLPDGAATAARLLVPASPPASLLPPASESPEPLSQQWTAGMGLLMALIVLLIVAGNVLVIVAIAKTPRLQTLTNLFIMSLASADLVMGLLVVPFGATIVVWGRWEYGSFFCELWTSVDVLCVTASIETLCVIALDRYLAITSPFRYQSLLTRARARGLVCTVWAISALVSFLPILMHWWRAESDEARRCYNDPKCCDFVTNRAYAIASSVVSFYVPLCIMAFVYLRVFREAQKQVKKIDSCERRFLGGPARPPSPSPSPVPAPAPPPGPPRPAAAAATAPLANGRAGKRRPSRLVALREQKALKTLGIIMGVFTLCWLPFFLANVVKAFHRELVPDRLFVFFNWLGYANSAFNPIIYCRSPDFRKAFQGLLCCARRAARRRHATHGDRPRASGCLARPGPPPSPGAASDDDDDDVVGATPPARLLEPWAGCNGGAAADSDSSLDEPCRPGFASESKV

human β1AR [2] = biological target: T2, human β1AR; test: cAMP generation in β1AR-HEK 293 cells (Catchpoint cAMP kit); conditions: agent alone, 10 μM for 10 min, serum starved cells, vs control
Description: cAMP generation assay was performed using whole cell lysates. The assay was done using the standard manufacturer's protocol.

human β1AR [3] = biological target: T2, human β1AR; test: Adenylyl cyclase (AC) assay on plasma membranes of HEK-β1AR cells (G-protein coupling); assay type: biochemical; parameters: FLAG; expressed in transfected cells; pcDNA3.1(-) plasmid, a gift from Dr. Yang K. Xiang; conditions: agent alone, isolated plasma membranes
Description: as §1

T1 sequence (P08588 whole entry): as above

- AC activity (human cardiac β1AR): activating AC activity
- ERK phosphorylation (human β1AR [1]): significantly increased
- cAMP generation (human β1AR [2]): significantly increased
- AC activity (human β1AR [3]): significantly increased AC activity
SMILES: CC(CCc1ccc(O)cc1)NCCc1ccc(O)c(O)c1 (stereo not shown) [Dob, dobutamine]

Reference: patent US20240124594A1, “TREATMENT OF CVD AND SYSTEMIC SCEROSIS WITH BETA-1 ADRENERGIC RECEPTOR ANTIBODIES” (The Cleveland Clinic Foundation, priority 2021, published 2024)
